Read-outs that look alike come from different tables or passages of the source. Marks after values point to notes of the source that are not given here.
Legend:
ERα [1] = biological target: T1, ERα (Homo sapiens, UniProt P03372); assay: Western blot, dose-response modulation of ERα protein levels in T47D cells; assay type: cell-based; design: endogenous in cells; conditions: 24 h; for Efficacy, ERα (AVG % ER remaining ± SD): relative to vehicle (DMSO) = 100%
T1 sequence (P03372 1-595): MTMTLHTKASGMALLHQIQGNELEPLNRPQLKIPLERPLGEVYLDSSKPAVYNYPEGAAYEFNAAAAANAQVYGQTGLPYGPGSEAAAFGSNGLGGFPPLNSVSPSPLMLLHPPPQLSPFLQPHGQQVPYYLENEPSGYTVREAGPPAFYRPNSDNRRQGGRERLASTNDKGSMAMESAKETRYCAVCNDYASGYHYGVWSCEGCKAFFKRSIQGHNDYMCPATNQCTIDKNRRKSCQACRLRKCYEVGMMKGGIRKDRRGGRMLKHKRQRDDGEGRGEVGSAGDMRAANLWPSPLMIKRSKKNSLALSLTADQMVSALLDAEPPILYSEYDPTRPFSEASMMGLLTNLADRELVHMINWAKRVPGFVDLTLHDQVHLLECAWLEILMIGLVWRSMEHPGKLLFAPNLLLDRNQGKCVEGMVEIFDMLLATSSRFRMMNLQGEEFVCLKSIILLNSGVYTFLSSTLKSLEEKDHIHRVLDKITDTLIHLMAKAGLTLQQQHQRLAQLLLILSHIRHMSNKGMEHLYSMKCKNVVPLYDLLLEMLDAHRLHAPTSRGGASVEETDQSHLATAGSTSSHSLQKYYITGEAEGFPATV

ERβ [2] = biological target: T2, ERβ (Homo sapiens, UniProt Q92731); assay: Western blot, dose-response modulation of ERβ protein levels in T47D cells; assay type: cell-based; design: endogenous in cells; conditions: 24 h, relative to vehicle (DMSO) = 100%
ERα [3] = biological target: T1, ERα; assay: Effect of translational inhibition (CHX) on modulation of ERα protein levels in T47D cells; assay type: cell-based; design: endogenous in cells; conditions: 1 nM CHX, over the concentrations tested
ERβ [4] = biological target: T2, ERβ; assay: Effect of translational inhibition (CHX) on modulation of ERβ protein levels in T47D cells; assay type: cell-based; design: endogenous in cells; conditions: 1 nM CHX, over the concentrations tested
ERα [5] = biological target: T1, ERα; assay: Western blot, dose-response modulation of ERα protein levels in MCF7 cells; assay type: cell-based; design: although both cell lines express ERα and ERβ, MCF7 has a high ERα/ERβ ratio; endogenous in cells; host or cells: MCF7; conditions: 24 h; for Efficacy, ERα (AVG % ER remaining ± SD): relative to vehicle (DMSO) = 100%, maximal response of fitted dose-response curve
ERβ [6] = biological target: T2, ERβ; assay: Western blot, dose-response modulation of ERβ protein levels in MCF7 cells; assay type: cell-based; design: although both cell lines express ERα and ERβ, MCF7 has a high ERα/ERβ ratio; endogenous in cells; host or cells: MCF7; conditions: 24 h, relative to vehicle (DMSO) = 100%
ERα [7] = biological target: T1, ERα; assay: Effect of translational inhibition (CHX) on modulation of ERα protein levels in MCF7 cells; assay type: cell-based; design: although both cell lines express ERα and ERβ, MCF7 has a high ERα/ERβ ratio; endogenous in cells; host or cells: MCF7; conditions: 1 nM CHX, over the concentrations tested
ERβ [8] = biological target: T2, ERβ; assay: Effect of translational inhibition (CHX) on modulation of ERβ protein levels in MCF7 cells; assay type: cell-based; design: although both cell lines express ERα and ERβ, MCF7 has a high ERα/ERβ ratio; endogenous in cells; host or cells: MCF7
ERα [9] = conditions: MCF7, cited from earlier work; for ERα protein levels downregulated: 48 h, 1 nM E2, 100 nM fulvestrant, 1 μM 4-OHT, ref Garner et al. (2015); for ERα protein levels downregulated to: after 6 h, 100 nM, ref Yeh et al. (2013)
ERα [10] = conditions: T47D, cited from earlier work; for Effect on ERα protein levels: 24 h, 1 nM E2, 1 μM 4-OHT, ref Power and Thompson (2003)
ERβ [11] = biological target: T2, ERβ; design: although both cell lines express ERα and ERβ, MCF7 has a high ERα/ERβ ratio; endogenous in cells; host or cells: MCF7; conditions: cited from earlier work
ERβ [12] = biological target: T2, ERβ; design: endogenous in cells; method as in Power and Thompson (2003); conditions: T47D; 1 nM E2, 24 h 1 μM 4-OHT; ref Power and Thompson (2003); cited from earlier work
[13] = MCF7, 1 nM CHX, over the concentrations tested
[14] = MCF7, 1 nM E2, 1 μM fulvestrant, ref Mishra et al. (2016)
[15] = MCF7 cells transfected with an ERβ expression vector, 10 nM, ref Peekhaus et al. (2004)
[16] = MCF7, 1 nM E2, 24 h 1 μM 4-OHT, ref Power and Thompson (2003)

T2 sequence (Q92731 whole entry): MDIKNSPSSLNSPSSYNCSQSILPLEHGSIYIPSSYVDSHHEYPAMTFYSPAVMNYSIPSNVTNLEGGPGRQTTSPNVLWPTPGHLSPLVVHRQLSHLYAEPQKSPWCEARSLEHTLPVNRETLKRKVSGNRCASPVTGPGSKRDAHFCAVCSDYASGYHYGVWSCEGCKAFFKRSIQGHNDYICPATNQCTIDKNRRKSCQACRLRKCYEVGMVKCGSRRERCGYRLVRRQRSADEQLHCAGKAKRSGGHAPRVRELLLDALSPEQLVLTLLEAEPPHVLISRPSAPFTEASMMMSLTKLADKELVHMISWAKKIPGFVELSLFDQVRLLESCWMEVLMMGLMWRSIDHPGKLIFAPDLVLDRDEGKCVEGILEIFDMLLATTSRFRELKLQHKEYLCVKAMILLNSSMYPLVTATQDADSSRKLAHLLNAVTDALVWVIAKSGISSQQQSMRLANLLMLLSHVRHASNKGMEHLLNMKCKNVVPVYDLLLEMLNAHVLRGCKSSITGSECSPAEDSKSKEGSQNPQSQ

Cc1c(-c2ccc(O)cc2)nn(-c2ccc(O)cc2)c1-c1ccc(OCCN2CCCCC2)cc1 [MPP, methylpiperidinopyrazole]
Efficacy, ERα (AVG % ER remaining ± SD) (ERα [1]): 115.7 ± 3.4^b** % | Efficacy, ERβ (AVG % ER remaining ± SD) (ERβ [2]): 108.0 ± 2.1^b*** % | Change in ERα protein levels on addition of CHX (ERα [3]): no significant difference | Change in ERβ protein levels on addition of CHX (ERβ [4]): no significant difference | Efficacy, ERα (AVG % ER remaining ± SD) (ERα [5]): 120.9 ± 3.0^b*** % | Efficacy, ERβ (AVG % ER remaining ± SD) (ERβ [6]): 122.0 ± 2.3^b*** % | Change in ERα protein levels on addition of CHX (ERα [7]): 1.1 fold | Change in ERβ protein levels on addition of CHX (ERβ [8]; [13]): 1.1 fold

C[C@]12CC[C@@H]3c4ccc(O)cc4C[C@@H](CCCCCCCCC[S+]([O-])CCCC(F)(F)C(F)(F)F)[C@H]3[C@@H]1CC[C@@H]2O (stereo partly shown) [Ful, fulvestrant]
Efficacy of downregulation of ERα protein levels (ERα [9]; 1 μM, 4 h, ref Joseph et al. (2016)): 6.4% | ERα protein levels downregulated (ERα [9]): 100% | ERα protein levels downregulated to (ERα [9]): 35% | IC50 (ERα [9]; ref Joseph et al. (2016), read-out: Potency of downregulation of ERα protein levels): 0.39 nM | ERα protein levels downgraded (ERα [10]; concentration range 0.03–1 μM, ref Liu et al. (2016)): more than 50% | Efficacy, ERα (AVG % ER remaining ± SD) (ERα [1]): 64.1 ± 20.9^a % | Efficacy, ERβ (AVG % ER remaining ± SD) (ERβ [2]): 134.1 ± 4.8^b*** % | Change in ERβ protein levels on addition of CHX (ERβ [4]): 1.2 fold | Efficacy, ERα (AVG % ER remaining ± SD) (ERα [5]): 46.8 ± 6.8^a % | Efficacy, ERβ (AVG % ER remaining ± SD) (ERβ [6]): 127.1 ± 9.6^b*** % | Change in ERβ protein levels on addition of CHX (ERβ [8]; [13]): not significantly altered | Effect on ERβ protein levels (ERβ [11]; [14]): upregulated | Effect on ERβ protein levels (ERβ [11]; [15]): upregulated

C[C@]12CC[C@@H]3c4ccc(O)cc4CC[C@H]3[C@@H]1CC[C@@H]2O [E2, 17β-estradiol]
Effect on ERα protein levels (ERα [9]; 24 h, 1 nM E2, 1 μM 4-OHT, ref Power and Thompson (2003)): downregulated | ERα protein levels downregulated (ERα [9]): 100% | ERα protein levels downregulated to (ERα [9]): 35% | Effect on ERα protein levels (ERα [10]): no effect | Efficacy, ERβ (AVG % ER remaining ± SD) (ERβ [2]): 58.7 ± 9.0^a % | Effect on ERβ protein levels (ERβ [12]): significantly upregulated | Efficacy, ERβ (AVG % ER remaining ± SD) (ERβ [6]): 53.3 ± 5.6^a % | Effect on ERβ protein levels (ERβ [11]; [14]): downregulated | Effect on ERβ protein levels (ERβ [11]; [16]): significantly upregulated | Effect on ERβ protein levels (ERβ [11]; [15]): downregulated

CC/C(=C(\c1ccc(O)cc1)c1ccc(OCCN(C)C)cc1)c1ccccc1 [4-OHT, (2)-4-hydroxytamoxifen]
Effect on ERα protein levels (ERα [10]): upregulate | Efficacy, ERβ (AVG % ER remaining ± SD) (ERβ [2]): 151.8 ± 10.8^b*** % | Effect on ERβ protein levels (ERβ [12]): significant downregulation | Efficacy, ERβ (AVG % ER remaining ± SD) (ERβ [6]): 142.9 ± 8.2^b*** % | Change in ERβ protein levels on addition of CHX (ERβ [8]): not significantly altered | Effect on ERβ protein levels (ERβ [11]; [16]): significantly upregulated

O=C1C[C@@H](c2ccc(O)cc2)Oc2cc(O)ccc21 [Liq, liquiritigenin]
Potency, ERα (AVG IC50 in Log μg/mL ± SD) (ERα [1]): −9.8 ± 1.0^a ^, ^c** Log μg/mL | Efficacy, ERα (AVG % ER remaining ± SD) (ERα [1]): 87.5 ± 2.5^b ^, ^c % | Change in ERα protein levels on addition of CHX (ERα [3]): no significant difference | Potency, ERα (AVG IC50 in Log μg/mL ± SD) (ERα [5]): −1.9 ± 0.8^b**** Log μg/mL | Efficacy, ERα (AVG % ER remaining ± SD) (ERα [5]): 65.9 ± 10.9^a % | Change in ERα protein levels on addition of CHX (ERα [7]): no significant difference
